Reference: ChEMBL document CHEMBL1142630, “The application of HPLC with on-line coupled UV/MS-biochemical detection for isolation of an acetylcholinesterase inhibitor from narcissus 'Sir Winston Churchill'” (J Nat Prod, 2000)

Target: Acetylcholinesterase (Homo sapiens, UniProt P22303)
Test: Inhibition of AChE by microplate assay

Chain of Acetylcholinesterase (P22303 whole entry): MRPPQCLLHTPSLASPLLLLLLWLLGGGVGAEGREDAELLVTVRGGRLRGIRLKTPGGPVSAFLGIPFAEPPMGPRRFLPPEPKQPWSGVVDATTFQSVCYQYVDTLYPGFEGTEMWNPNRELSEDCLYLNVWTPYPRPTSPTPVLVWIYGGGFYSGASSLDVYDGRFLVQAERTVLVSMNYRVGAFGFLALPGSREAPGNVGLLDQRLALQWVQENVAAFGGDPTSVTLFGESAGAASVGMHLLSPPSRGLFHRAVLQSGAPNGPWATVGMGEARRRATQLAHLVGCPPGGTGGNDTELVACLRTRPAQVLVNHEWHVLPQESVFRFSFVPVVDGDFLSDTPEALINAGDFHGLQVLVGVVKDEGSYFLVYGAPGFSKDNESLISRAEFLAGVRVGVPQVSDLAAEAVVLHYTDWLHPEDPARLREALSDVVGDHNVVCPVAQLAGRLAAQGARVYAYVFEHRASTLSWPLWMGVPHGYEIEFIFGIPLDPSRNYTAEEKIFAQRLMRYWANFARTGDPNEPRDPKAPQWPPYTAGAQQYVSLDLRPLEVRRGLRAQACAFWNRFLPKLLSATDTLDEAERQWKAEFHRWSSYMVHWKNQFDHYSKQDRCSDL

Compound: CO[C@@H]1[C@@H](O)[C@H]2c3cc4c(cc3CN3CC=C([C@H]1O)[C@H]23)OCO4 [UNGIMINORINE]
- IC50: 86 µM
